Reference: patent publication US7851492B2, “ERG channel openers for the treatment of cardiac arrhythmias” (Neurosearch A/S, priority 2003, dated 2010)

Legend:
HERG1 channel [1] = molecular target: T1, HERG1 channel (Homo sapiens, UniProt Q12809); test: HERG1 current by 2-electrode voltage clamp in Xenopus laevis oocytes transiently expressing HERG1 channels; assay type: cell-based
T1 construct: expressed in transfected cells; host or cells: Xenopus laevis oocytes (transient expression, vector pXOOM)
Method: The HERG1 channel is expressed in HEK293 cells. The gene encoding the HERG1 channel was cloned as described by Warmke & Ganetzky, Proc. Natl. Acad. Sci. USA 1994 91 3438-3442.
(§1) To ensure functional expression in HEK293 cells, the HERG1 gene was sub-cloned in the shuttle-vector pXOOM as described by Jespersen et al.; Biotechniques 2002 32 536-540.
The electrical current through the HERG1 channel is measured using 2-electrode voltage clamp technology. HERG1 current is activated by a step protocol.
In brief, this protocol goes from a resting membrane potential of −80 mV (lasting 3 seconds) to a 1 second depolarisation step at +10 mV, followed by a repolarisation step at −60 mV. The protocol is repeated up to 500 times.
Xenopus laevis oocytes transiently expressing HERG1 channels where challenged by a voltage protocol from −80 mV to +10 mV to −60 mV. This protocol was repeated every 7th second until a stable current level was obtained.

HERG1 channel [2] = molecular target: T1, HERG1 channel; test: HERG1 current by patch clamp with simulated cardiac action potential in HEK293 cells stably expressing HERG1 channels; assay type: cell-based
Method: In this example the HERG1 channel opening activity of a diphenyl urea derivative for use according to the invention, 1-(3-Trifluoromethyl-phenyl)-3-(2-hydroxy-5-chlorophenyl)-urea (Compound A), is determined using mammalian HEK293 cells stably expressing HERG1 channels.
The HERG1 channel is expressed in HEK293 cells. The gene encoding the HERG1 channel was cloned as described by Warmke & Ganetzky; Proc. Natl. Acad. Sci. USA 1994 91 3438-3442.
as §1
Mammalian expression is obtained by stable transfection of the gene construct in HEK293 cells.
The electrical current through the HERG1 channel is measured using patch clamp technology. HERG1 current is activated by simulated cardiac action potentials.
In brief, this protocol goes from a resting membrane potential of −90 mV to a short initial depolarisation step to +30 mV, followed by a ramp ending at 0 mV. This plateau phase is ended by a repolarisation, going from −15 mV to −90 mV in 70 ms, back to the resting membrane potential, as also shown in the voltage protocol in FIG. 1.
Having reached a stable current level, Compound A was added.

awake guinea pigs = test: Awake guinea-pig telemetry model: QT intervals in electrocardiograms; assay type: in vivo; conditions: 50 mg/kg IV
Method: Compounds were dosed IV, and ECG's and heart rate were measured. QT intervals were corrected (QTc) for any change in heart rate.

native cardiac myocytes = test: Modulation of action potentials in native cardiac myocytes (patch clamp, current clamp mode); assay type: cell-based, guinea pig
Method: In this example the activity on native cardiac myocytes from guinea pigs of a compound representative of the invention, 1,3-Bis-(2-hydroxy-5-trifluoromethyl-phenyl)-urea (Compound C), obtained as described in WO 2002/064128, is determined.
The membrane potential of native cardiomyocytes was determined using the patch clamp technique in current clamp mode. The membrane potential was adjusted to approximately −80 mV before start of experiments. Cells were challenged by 20 repetitive rounds of current applications. A single round of application was as follows: Action potentials were evoked by applying a single current pulse of 1 nA lasting from 5-15 ms. The single pulse was followed by 30 repetitive pulses lasting 1-5 ms and with a current amplitude of 100-700 pA. The repetitive pulses were applied at the end of the evoked action potential. These experiments were conducted in the presence or absence of Compound C.
Native cardiomyocytes responded to the described voltage protocol by eliciting an actionpotential.

[3] = native guinea pig cardiomyocytes, current clamp, Example 3

T1 sequence (Q12809 whole entry): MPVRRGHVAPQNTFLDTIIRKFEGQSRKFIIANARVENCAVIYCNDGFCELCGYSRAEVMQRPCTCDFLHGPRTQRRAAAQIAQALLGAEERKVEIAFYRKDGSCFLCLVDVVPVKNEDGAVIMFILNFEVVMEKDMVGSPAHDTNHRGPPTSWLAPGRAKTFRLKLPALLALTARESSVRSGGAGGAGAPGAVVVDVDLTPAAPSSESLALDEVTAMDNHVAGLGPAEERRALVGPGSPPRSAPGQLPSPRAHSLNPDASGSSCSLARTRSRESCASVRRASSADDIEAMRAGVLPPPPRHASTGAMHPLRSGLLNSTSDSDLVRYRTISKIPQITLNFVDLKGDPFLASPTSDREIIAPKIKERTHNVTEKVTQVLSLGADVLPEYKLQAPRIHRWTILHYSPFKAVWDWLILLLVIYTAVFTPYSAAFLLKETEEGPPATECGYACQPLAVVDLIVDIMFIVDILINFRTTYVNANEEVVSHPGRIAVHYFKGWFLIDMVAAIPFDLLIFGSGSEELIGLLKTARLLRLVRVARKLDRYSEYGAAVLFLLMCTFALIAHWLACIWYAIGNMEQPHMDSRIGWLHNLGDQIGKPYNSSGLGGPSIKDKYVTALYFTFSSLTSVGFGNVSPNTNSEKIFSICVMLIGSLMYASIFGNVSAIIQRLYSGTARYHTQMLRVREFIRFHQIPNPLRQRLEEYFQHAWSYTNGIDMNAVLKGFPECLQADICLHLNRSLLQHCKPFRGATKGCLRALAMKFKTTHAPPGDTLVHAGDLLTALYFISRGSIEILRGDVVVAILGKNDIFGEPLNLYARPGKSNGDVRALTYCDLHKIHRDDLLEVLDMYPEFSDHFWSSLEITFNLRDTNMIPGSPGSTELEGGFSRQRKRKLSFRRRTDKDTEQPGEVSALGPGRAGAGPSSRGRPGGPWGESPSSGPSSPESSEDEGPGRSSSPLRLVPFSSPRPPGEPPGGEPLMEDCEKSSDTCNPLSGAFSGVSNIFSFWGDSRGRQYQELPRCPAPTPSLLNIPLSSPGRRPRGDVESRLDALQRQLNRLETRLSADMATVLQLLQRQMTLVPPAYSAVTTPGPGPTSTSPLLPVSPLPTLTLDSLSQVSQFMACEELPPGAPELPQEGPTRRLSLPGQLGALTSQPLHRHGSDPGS

Row | melting point | Structure (SMILES) | also measured
1 | 158 to 159 °C | O=C(Nc1cc(C(F)(F)F)ccc1O)Nc1ccccc1C(F)(F)F [Compound 1, 1-(2-Hydroxy-5-trifluoromethyl-phenyl)-3-(2-trifluoromethyl-phenyl)-urea] | 
2 | 224 to 225 °C | O=C(Nc1ncccn1)Nc1ccccc1C(F)(F)F [Compound 2, 1-Pyrimidin-2-yl-3-(2-trifluoromethyl-phenyl)-urea] | 
3 | 183 to 184 °C | O=C(Nc1cc(Cl)ccc1O)Nc1ccccc1C(F)(F)F [Compound 3, 1-(5-Chloro-2-hydroxy-phenyl)-3-(2-trifluoromethyl-phenyl)-urea] | 
4 | 223 to 224 °C | COc1ccc(NC(=O)Nc2cccc(C(F)(F)F)c2)c(O)n1 [Compound 4, 1-(2-Hydroxy-6-methoxy-pyridin-3-yl)-3-(3-trifluoromethyl-phenyl)-urea] | 
5 | > 300 °C | O=C(Nc1cccc(C(F)(F)F)c1)Nc1c(C(=O)O)[nH]c(=O)[nH]c1=O [Compound 7, 2,6-Dioxo-5-[3-(3-trifluoromethyl-phenyl)-ureido]-1,2,3,6-tetrahydro-pyrimidine-4-carboxylic acid] | 
6 | > 300 °C | O=C(Nc1cccc(C(F)(F)F)c1)Nc1nccnc1C(=O)O [Compound 8, 3-[3-(3-Trifluoromethyl-phenyl)-ureido]-pyrazine-2-carboxylic acid] | 
7 | 195 to 197 °C | O=C(Nc1ccccc1F)Nc1cc(Cl)ccc1C(=O)O [Compound 9, 4-Chloro-2-[3-(2-fluoro-phenyl)-ureido]-benzoic acid] | 
8 | 184.5 to 189.3 °C | CN(C)C(=O)CCc1ccc(NC(=O)Nc2ccc(Cl)c(C(F)(F)F)c2)c(-c2nnn[nH]2)c1 [Compound 11, 3-[4-[3-(4-Chloro-3-trifluoromethyl-phenyl)-ureido]-3-(1H-tetrazol-5-yl)-phenyl]-N,N-dimethyl-propionamide] | 
9 | 234 to 236 °C | O=C(Nc1cc(Cl)cc(Cl)c1)Nc1ccc(Cl)cc1-c1nnn[nH]1 [Compound 12, 1-[4-Chloro-2-(1H-tetrazol-5-yl)-phenyl]-3-(3,5-dichloro-phenyl)-urea] | 
10 | 156 °C (dec.) | O=C(Nc1ccc(-c2ccccc2)cc1-c1nnn[nH]1)c1cc(C(F)(F)F)cc(C(F)(F)F)c1 [Compound 15, N-[3-(1H-Tetrazol-5-yl)-biphenyl-4-yl]-3,5-bis-trifluoromethyl-benzamide] | HERG1 current (HERG1 channel [1]; 1-30 μM): increase; repolarisation current recorded at −60 mV (HERG1 channel [1]; voltage protocol −80 mV to +10 mV to −60 mV (FIG. 2)): marked increase
11 | > 219 °C (dec.) | O=C(Nc1ccc(Nc2ccc(Cl)cc2)c(Cl)c1)c1cc([N+](=O)[O-])ccc1O [Compound 17, N-[3-Chloro-4-(4-chloro-phenylamino)-phenyl]-2-hydroxy-5-nitro-benzamide] | 
12 |  | O=C(Nc1cccc(C(F)(F)F)c1)Nc1cc(Cl)ccc1O [Compound A, 1-(3-Trifluoromethyl-phenyl)-3-(2-hydroxy-5-chlorophenyl)-urea] | repolarisation current (HERG1 channel [2]; HEK293 cells stably expressing HERG1, simulated cardiac action potential, 10 μM (FIG. 1)): marked increase; current during the last phase of the cardiac simulating voltage protocol (repolarisation current) (HERG1 channel [2]; HEK293 cells, 3-30 μM): increase; HERG1 current in the first 200 ms of the resting phase (HERG1 channel [2]; HEK293 cells, simulated cardiac action potential): increased
13 |  | O=C(Nc1cccc(C(F)(F)F)c1)Nc1ccc(Br)cc1-c1nnn[nH]1 [Compound B, 1-(3-Trifluoromethyl-phenyl)-3-[2-(1H-tetrazol-5-yl)-4-bromo-phenyl] urea] | reduction of the length of the corrected QT interval (QTc) compared to controls (awake guinea pigs): 23%
14 |  | O=C(Nc1cc(C(F)(F)F)ccc1O)Nc1cc(C(F)(F)F)ccc1O [Compound C, 1,3-Bis-(2-hydroxy-5-trifluoromethyl-phenyl)-urea] | cardiac action potential duration (native cardiac myocytes; [3]): shorting of the cardiac action potential; membrane potential in the presence of the 30 repetitive pulses (native cardiac myocytes; [3]): stable membrane potential; rounds of current applications in which stabilisation was observed (native cardiac myocytes; of 20 rounds of current applications): 20 rounds
